Laboratory results taken from US8957000B2, “Use of sarmentine and its analogs for controlling plant pests” (Marrone Bio Innovations, Inc., priority 2009, dated 2015).
Read-outs that look alike come from different tables or passages of the source.

Key:
[1] = tested on: Barnyard grass (Echinochloa crusgalli L.); assay: Herbicidal activity, foliar spraying (spectrum and SAR study); type: in vivo; details: for pest or weed control at 5000 µg/mL: Echinochloa crus-galli, 72 h, read-out: Efficacy of phytotoxic activity; for pest or weed control at 5000 µg/mL / Efficacy of phytotoxic activity: at least 3 days after spraying
Description: (§1) All weed, sedge and crop seedlings were planted in 8 cm×8 cm×7.2 cm or 10 cm×10 cm×9 cm plastic pots. Seedlings including pigweed (Amaranthus retroflexus, L.), barnyard grass (Echinochloa crusgalli L.), bindweed (Convolvulus arvensis L.), crabgrass (Digitaria sanguinalis L.), dandelion (Taraxacum officinale F.), lambsquarters (Chenopodium album L.), bluegrass (Poa annua L.), wild mustard (Brassica kaber L.), black nightshade (Solanum nigrum L.), curly dock (Rumex crispus L.), horseweed (Conyza Canadensis L.), sweet corn (Zea may S.) and wheat PR 1404 (Triticum aestivum L.) were planted in Super Soil potting soil. Seedlings including rice M-104 (Oryza saliva L.), sedge (Cyperus difformis L.) and sprangletop (Leptochloa fascicularis Lam) were planted in mud which was collected from rice field (Woodland, Calif., USA). When treated, all seedlings were 15 days old except for rice (10 days), wheat (20 days), corn (20 days) sprangletop (20 days old), sedge (20 days old) and horse weed (70 days old).
(§2) Herbicidal activity of the active compound and synthesized compounds was evaluated by foliar spraying. Spraying carrier solution contained 2% ethanol, 0.2% glycosperse O-20 and 0.1% sodium lauryl sulfate. Freshly made solution with the evaluated compound at a concentration of 5 mg/mL was used. In the spectrum study, spraying volume was dependent on the foliar surface area, ranging from approximately 1 to 3 mL/pot plants. One or two pots of plants were treated for each. Number of pots was dependent on both foliar area and availability. In the structure-activity relationship study, one pot of barnyard grass was used and the spraying volume of each compound was 3 mL of 5 mg/mL.
(§3) The optimal concentration of sarmentine was 5 mg/mL for excellent control of barnyard grass (Figure 2). Therefore, such a concentration was subjected to herbicidal spectrum study. Due to the hydrophobic property of sarmentine, a carrier solution containing 0.2% glycosperse O-20, 2% ethanol and 0.1% sodium lauryl sulfate was used. Although this solution contains a high concentration of surfactants, sarmentine can stay suspended in this solution no more than 15 min. Therefore, sarmentine was made freshly just before spraying.

[2] = tested on: Bindweed (Convolvulus arvensis, L.); assay: Herbicidal spectrum, foliar spraying; type: in vivo; details: foliar spray 5 mg/mL
Description: as §1, §2, §3

[3] = tested on: Black nightshade (Solanum nigrum L.); assay: Herbicidal spectrum, foliar spraying; type: in vivo; details: foliar spray 5 mg/mL
Description: as §1, §2, §3

[4] = tested on: Bluegrass (Poa annua L.); assay: Herbicidal spectrum, foliar spraying; type: in vivo; details: foliar spray 5 mg/mL
Description: as §1, §2, §3

[5] = tested on: Crabgrass (Digitaria sanguinalis L.); assay: Herbicidal spectrum, foliar spraying; type: in vivo; details: foliar spray 5 mg/mL
Description: as §1, §2, §3

[6] = tested on: Curly dock (Rumex crispus L.); assay: Herbicidal spectrum, foliar spraying; type: in vivo; details: foliar spray 5 mg/mL
Description: as §1, §2, §3

[7] = tested on: Dandelion (Taraxacum officinale F.); assay: Herbicidal spectrum, foliar spraying; type: in vivo; details: foliar spray 5 mg/mL
Description: as §1, §2, §3

[8] = tested on: Horse weed (Conyza Canadensis L.); assay: Herbicidal spectrum, foliar spraying; type: in vivo; details: foliar spray 5 mg/mL
Description: as §1, §2, §3

[9] = tested on: Lambsquarters (Chenopodium album L.); assay: Herbicidal spectrum, foliar spraying; type: in vivo; details: foliar spray 5 mg/mL
Description: as §1, §2, §3

[10] = tested on: Pigweed (Amaranthus retroflexus, L.); assay: Herbicidal spectrum, foliar spraying; type: in vivo; details: foliar spray 5 mg/mL
Description: as §1, §2, §3

[11] = tested on: Rice (M 104) (Oryza saliva L); assay: Herbicidal spectrum, foliar spraying; type: in vivo; details: foliar spray 5 mg/mL
Description: as §1, §2, §3

[12] = tested on: Sedge (Cyperus difformis L.); assay: Herbicidal spectrum, foliar spraying; type: in vivo; details: foliar spray 5 mg/mL
Description: as §1, §2, §3

[13] = tested on: Sprangletop (Leptochloa fascicularis Lam.); assay: Herbicidal spectrum, foliar spraying; type: in vivo; details: foliar spray 5 mg/mL
Description: as §1, §2, §3

[14] = tested on: Sweet corn (Zea mays S.); assay: Herbicidal spectrum, foliar spraying; type: in vivo; details: foliar spray 5 mg/mL
Description: as §1, §2, §3

[15] = tested on: Wheat (PR 1404) (Triticum aestivum L.); assay: Herbicidal spectrum, foliar spraying; type: in vivo; details: foliar spray 5 mg/mL
Description: as §1, §2, §3

[16] = tested on: Wild mustard (Brassica kaber L.); assay: Herbicidal spectrum, foliar spraying; type: in vivo; details: foliar spray 5 mg/mL
Description: as §1, §2, §3

[17] = Suspension of sarmentine in spraying carrier solution; type: physicochemical; details: 0.2% glycosperse O-20, 2% ethanol and 0.1% sodium lauryl sulfate
Method: as §3

[18] = tested on: plants; assay: Symptom of phytotoxic activity after spraying; type: in vivo; details: sarmentine solution
Method: as §2
Sarmentine is a contact phytotoxic compound. When plants were treated with sarmentine solution, slightly black tiny spots would first show on the leaves and then became bigger and bigger until they covered the whole leaves, especially obvious on the barnyard grass. […] This symptom was observed very similarly to that of middle-chain fatty acids such as decanoic acid (21, Table 4) and 2E-decenoic acid (22, Table 3) during the SAR study.

[19] = SAR study, one pot of barnyard grass, foliar spray 3 mL of 5 mg/mL
[20] = SAR study, barnyard grass, foliar spray 3 mL of 5 mg/mL
[21] = 15 days old, 1 to 3 mL/pot, at least 3 days after spraying
[22] = 20 days old, 1 to 3 mL/pot, at least 3 days after spraying

## CCCCCCCCCC(=O)N1CCCCC1 [No 12, N-(Decanoyl)piperidine]
[1]; [19]
  pest or weed control at 5000 µg/mL: 80 to 100%
[1]; [20]
  Phytotoxic activity relative to sarmentine / toxicity to barnyard grass (in words): remained the same

## CCCCC/C=C\C=C\C(=O)N1CCCCC1 [No 14, (2E,4Z-Decadienoyl)piperidine]
[1]; [19]
  pest or weed control at 5000 µg/mL: 80 to 100%

## CCCCCCC/C=C/C(=O)N1CCCCC1 [No 13, N-(Decenoyl)piperidine]
[1]; [19]
  pest or weed control at 5000 µg/mL: 80 to 100%

## CCCCCCCCCC(=O)N1CCCC1 [No 8, N-(Decanoyl)pyrrolidine]
[1]; [19]
  pest or weed control at 5000 µg/mL: 80 to 100%
[1]; [20]
  Phytotoxic activity relative to sarmentine / toxicity to barnyard grass (in words): remained the same

## CCCCCCC/C=C/C(=O)N1CCCC1 [No 9, N-(Decenoyl)pyrrolidine]
[1]; [19]
  pest or weed control at 5000 µg/mL: 80 to 100%
[1]; [20]
  Phytotoxic activity relative to sarmentine / toxicity to barnyard grass (in words): remained the same

## CCCCCCC/C=C/C(=O)O [No 22, 2E-decenoic acid]
[1]; [19]
  pest or weed control at 5000 µg/mL: 80 to 100%
[1]; [20]
  Phytotoxic activity relative to sarmentine / toxicity to barnyard grass (in words): very active

## CCCCCCCCCC(=O)N1CCCCCC1 [No 16, N-(Decanoyl)hexamethyleneimine]
[1]; [19]
  pest or weed control at 5000 µg/mL: 80 to 100%
[1]; [20]
  Phytotoxic activity relative to sarmentine / toxicity to barnyard grass (in words): remained the same

## C1CCCNCC1 [No 26, hexamethyleneimine, reference compound]
[1]; [20]
  Phytotoxic activity relative to sarmentine / toxicity to barnyard grass (in words): non toxic
[1]; [19]
  Efficacy of phytotoxic activity: I

## C1CCNCC1 [No 25, piperidine, reference compound]
[1]; [20]
  Phytotoxic activity relative to sarmentine / toxicity to barnyard grass (in words): non toxic
[1]; [19]
  Efficacy of phytotoxic activity: I

## O=C(/C=C/c1ccccc1)N1CCCCC1 [No 15, N-(trans-Cinnamoyl)piperidine]
[1]; [19]
  pest or weed control at 5000 µg/mL: 40 to 60%

## CCCCCCCCCC(=O)O [No 21, decanoic acid]
[1]; [19]
  pest or weed control at 5000 µg/mL: 80 to 100%
[1]; [20]
  Phytotoxic activity relative to sarmentine / toxicity to barnyard grass (in words): very active

## CCCCC/C=C\C=C\C(=O)N1CCCC1 [No 10, (2E,4Z-Decadienoyl)pyrrolidine]
[1]; [19]
  pest or weed control at 5000 µg/mL: 80 to 100%
[1]; [20]
  Phytotoxic activity relative to sarmentine / toxicity to barnyard grass (in words): remained the same

## CCCCC/C=C\C=C\C(=O)NC1CCCC1 [No 6, N-Cyclopentyl 2E,4Z-decadienamide]
[1]; [19]
  pest or weed control at 5000 µg/mL: < 20%

## CCCCCCC/C=C/C(=O)N1CCCCCC1 [No 17, N-(Decenoyl)hexamethyleneimine]
[1]; [19]
  pest or weed control at 5000 µg/mL: 80 to 100%

## CCCCC/C=C\C=C\C(=O)OCC [No 3]
[1]; [19]
  pest or weed control at 5000 µg/mL: < 20%

## CCCCC/C=C/C=C/C(=O)N1CCCC1 [sarmentine, N-(2E,4E-Decadienoyl) pyrrolidine]
[1]; spectrum study, barnyard grass, 15 days old, foliar spray 5 mg/mL, 1 to 3 mL/pot
  pest or weed control at 5000 µg/mL: 80 to 100%
[1]; [19]
  Efficacy of phytotoxic activity: VI (VI (80-100%))
[1]; foliar spraying, Figure 2
  Optimal concentration for excellent control of barnyard grass: 5 mg/mL
[1]; spectrum study, barnyard grass, foliar spray 5 mg/mL
  Phytotoxic activity (in words): highly phytotoxic activity
[2]; [21]
  Efficacy of phytotoxic activity: VI (VI (80-100%))
[2]
  Phytotoxic activity (in words): highly phytotoxic activity
[3]; [21]
  Efficacy of phytotoxic activity: VI (VI (80-100%))
[3]
  Phytotoxic activity (in words): highly phytotoxic activity
[4]; blue grass
  Phytotoxic activity (in words): highly phytotoxic activity
[4]; bluegrass, 15 days old, 1 to 3 mL/pot, at least 3 days after spraying
  Efficacy of phytotoxic activity: VI (VI (80-100%))
[5]; [21]
  Efficacy of phytotoxic activity: VI (VI (80-100%))
[5]
  Phytotoxic activity (in words): highly phytotoxic activity
[6]; [21]
  Efficacy of phytotoxic activity: VI (VI (80-100%))
[6]
  Phytotoxic activity (in words): highly phytotoxic activity
[7]; [21]
  Efficacy of phytotoxic activity: VI (VI (80-100%))
[7]
  Phytotoxic activity (in words): highly phytotoxic activity
[8]; horse weed, 70 days old, 1 to 3 mL/pot, at least 3 days after spraying
  Efficacy of phytotoxic activity: II (II (<20%))
[8]; horseweed (70-day-old)
  Phytotoxic activity (in words): Slightly phytotoxic activity
[9]; [21]
  Efficacy of phytotoxic activity: VI (VI (80-100%))
[9]
  Phytotoxic activity (in words): highly phytotoxic activity
[10]; [21]
  Efficacy of phytotoxic activity: VI (VI (80-100%))
[10]
  Phytotoxic activity (in words): highly phytotoxic activity
[11]; rice M-104, 10 days old, 1 to 3 mL/pot, at least 3 days after spraying
  Efficacy of phytotoxic activity: I
[11]; rice plants, after 10 days
  Phytotoxic activity (in words): No visible phytotoxic activity
[12]; [22]
  Efficacy of phytotoxic activity: III (III (20-40%))
[12]
  Phytotoxic activity (in words): Slightly phytotoxic activity
[13]; [22]
  Efficacy of phytotoxic activity: VI (VI (80-100%))
[13]
  Phytotoxic activity (in words): highly phytotoxic activity
[14]; [22]
  Efficacy of phytotoxic activity: VI (VI (80-100%))
[14]
  Phytotoxic activity (in words): highly phytotoxic activity
[15]; wheat PR 1404, 20 days old, 1 to 3 mL/pot, at least 3 days after spraying
  Efficacy of phytotoxic activity: VI (VI (80-100%))
[15]; wheat
  Phytotoxic activity (in words): highly phytotoxic activity
[16]; [21]
  Efficacy of phytotoxic activity: VI (VI (80-100%))
[16]
  Phytotoxic activity (in words): highly phytotoxic activity
[17]
  Time sarmentine can stay suspended in carrier solution: no more than 15 min
[18]
  Time after spraying within which predominant phytotoxic activity happened: ≤ 48 h

## pyrrolidine [No 24, reference compound]
[1]; [20]
  Phytotoxic activity relative to sarmentine / toxicity to barnyard grass (in words): non toxic
[1]; [19]
  Efficacy of phytotoxic activity: I

## O=C(O)/C=C/c1ccccc1 [No 20, trans-cinnamic acid, reference compound]
[1]; [19]
  pest or weed control at 5000 µg/mL: 60 to 80%
[1]; [20]
  Phytotoxic activity relative to sarmentine / toxicity to barnyard grass (in words): very active

## O=C(/C=C/c1ccccc1)N1CCCCCC1 [No 19, N-(trans-Cinnamoyl) hexamethleneimine]
[1]; [19]
  pest or weed control at 5000 µg/mL: < 20%

## CCCCCCCCCC(=O)NC1CCCC1 [No 4, N-Cyclopentyldecanamide]
[1]; [19]
  pest or weed control at 5000 µg/mL: < 20%

## CCCCC/C=C\C=C\C(=O)N1CCCCCC1 [No 18, (2E,4Z-Decadienoyl)hexamethleneimine]
[1]; [19]
  pest or weed control at 5000 µg/mL: 80 to 100%

## O=C(/C=C/c1ccccc1)N1CCCC1 [No 11, N-(trans-Cinnamoyl)pyrrolidine]
[1]; [19]
  pest or weed control at 5000 µg/mL: 80 to 100%
[1]; [20]
  Phytotoxic activity relative to sarmentine / toxicity to barnyard grass (in words): remained the same

## NC1CCCC1 [No 23, cyclopentylamine, reference compound]
[1]; [20]
  Phytotoxic activity relative to sarmentine / toxicity to barnyard grass (in words): non toxic
[1]; [19]
  Efficacy of phytotoxic activity: I

## O=C(/C=C/c1ccccc1)NC1CCCC1 [No 7, N-Cyclopentylcinnamamide]
[1]; [19]
  pest or weed control at 5000 µg/mL: < 20%
